The target of data set [1] is N-alpha acyl glutamine aminoacylase (Corynebacterium striatum, UniProt Q8GGD4). In words: Malodour generated on cloth with enzyme and HMHA sweat precursor, assessed by a panel. Particulars: 0.1% compound in respective test products (un-fragranced base, fragranced base, Febreze) on polycotton cloth with HMHA precursor and enzyme, 37° C. 30 min; panel scale 0-10; vs untreated control. It counts as biochemical, Corynebacteria. From the text: The objective of the study is to measure the effectiveness of malodour-counteracting compounds for use in the present invention at reducing malodour generated on cloth in the presence of the enzyme N-alpha acyl glutamine aminoacylase, and the sweat precursor for the malodorous fatty acid 3-methyl-3-hydroxy-hexanoic acid (HMHA). The aim is to achieve a significant reduction in malodour on cloth against: • a) an untreated fabric • b) a marketed fabric freshener, namely Spring & Renewal Febreze®.
N-alpha acyl glutamine aminoacylase, sequence (Q8GGD4 whole entry): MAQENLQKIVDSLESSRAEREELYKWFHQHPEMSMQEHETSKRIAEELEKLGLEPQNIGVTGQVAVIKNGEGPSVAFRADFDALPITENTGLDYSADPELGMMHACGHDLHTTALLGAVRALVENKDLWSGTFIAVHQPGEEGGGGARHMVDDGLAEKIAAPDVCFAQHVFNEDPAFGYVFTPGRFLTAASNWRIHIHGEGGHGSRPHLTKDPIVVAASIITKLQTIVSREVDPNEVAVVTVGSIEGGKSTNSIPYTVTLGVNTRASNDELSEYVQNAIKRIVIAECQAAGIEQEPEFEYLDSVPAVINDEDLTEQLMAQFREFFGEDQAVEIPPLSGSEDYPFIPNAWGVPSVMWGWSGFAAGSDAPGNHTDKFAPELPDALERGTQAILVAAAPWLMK
140 μg of odourless precursor for HMHA (equivalent to 15 minutes of physical exercise) is dissolved in 125 μl of 12% ethanol/88% water and applied to 12.5 cm2 polycotton (40/60 mix) cloth in a 30 ml Beatson jar.
The cloth was allowed to dry completely in a 40° C. oven before checking for residual malodour.
Thereafter, the cloth was moistened with 125 μl of a solution containing 0.33 μg/ml of the enzyme N-α-acyl glutamine aminoacylase in 50 mM phosphate buffer pH 6 and the treated cloth was allowed to incubate in a glass jar at 37° C. for 30 minutes.
Thereafter a few drops of a 10% concentration of HCL were added to protonate the acids.
Malodour was assessed by a panel on a scale of 0 (nothing)-10 (very strong)
Malodour precursor was applied to cloth as described above and the cloth allowed to dry in an oven at 40° C.
125 μl of each of the following solutions was applied on to polycotton cloth already containing the precursor and allowed to dry in a 40° C. oven:
0.1% of the Compounds (I), (II), and (III) defined above (hereinafter referred to generally as “compound”), dissolved in an un-fragranced in-house fabric refresher base 0.1% of each compound dissolved in a fragranced fabric refresher base fragranced with a 0.05% of a proprietary fragrance having a floral-green-aldehyde odour (hereinafter “fragrance”).
0.1% of each inhibitor dissolved in a Febreze(r) Market product (Spring & Renewal) […]

The nature of data set [2]: Solubility in a cyclodextrin-containing fabric refreshener. The conditions noted are these: at 0.1%. It counts as physicochemical.

Take `CCCCC(CC)CNC(=O)N[C@@H](CCC(N)=O)C(=O)O` (stereo partly drawn) [Compound III]: in data set [1], the “malodour reduction compared with the control” value (“malodour reduction” for short) was “clear and significant malodour reduction”. For the same compound, the “solubility in a cyclodextrin-containing fabric refreshener” value (shortened to “solubility”) in data set [2] is recorded as “soluble”.

With `CC(CCOC(=O)NC(CCC(N)=O)C(=O)O)CCc1ccccc1` (stereo not drawn) [Compound II], in data set [1], the “malodour reduction” value is “clear and significant malodour reduction”. The “solubility” value in data set [2] was “soluble”.

On to `NC(=O)CC[C@H](NC(=O)OCc1ccccc1)C(=O)O` [Compound I], for which the “malodour reduction” value in data set [1] was “clear and significant malodour reduction”. Moreover, the “solubility” value in data set [2] is on record as “soluble”.

Values taken from patent publication US20150004126A9, “COMPOSITIONS” (GIVAUDAN S.A., priority 2011, published 2015).
